According to ChEMBL document CHEMBL5576103, “Targeting prolidase. A survey of the literature data to depict a structure-activity relationship frame and to address future studies for drug development” (Bioorg Med Chem, 2024):
Blank lines part the entries; values can stand above or below the compound they belong to.

Columns and labels:
Xaa-Pro dipeptidase [1] = molecular target: T1, Xaa-Pro dipeptidase (Homo sapiens, UniProt P12955); assay: Competitive inhibition of prolidase (unknown origin) in erythrocytes assessed as inhibition constant
T1 sequence (P12955 whole entry): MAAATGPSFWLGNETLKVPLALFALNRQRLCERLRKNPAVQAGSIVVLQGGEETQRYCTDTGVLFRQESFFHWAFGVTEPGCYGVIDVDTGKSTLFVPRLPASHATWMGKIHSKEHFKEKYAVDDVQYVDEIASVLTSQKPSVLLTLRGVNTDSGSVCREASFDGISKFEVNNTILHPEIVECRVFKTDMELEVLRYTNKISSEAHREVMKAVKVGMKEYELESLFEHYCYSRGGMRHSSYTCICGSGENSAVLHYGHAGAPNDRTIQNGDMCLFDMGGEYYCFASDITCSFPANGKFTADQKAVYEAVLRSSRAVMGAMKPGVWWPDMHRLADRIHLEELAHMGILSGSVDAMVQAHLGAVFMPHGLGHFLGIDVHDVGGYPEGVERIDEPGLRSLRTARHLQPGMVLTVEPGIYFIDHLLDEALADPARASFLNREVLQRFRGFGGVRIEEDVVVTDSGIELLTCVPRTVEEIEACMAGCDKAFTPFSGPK

MDA-MB-231 = assay: Cytotoxicity against human MDA-MB-231 cells assessed as reduction in cell viability measured for 72 hrs by MTT assay; settings: MDA-MB-231, 72 h
MCF7 = assay: Cytotoxicity against human MCF7 cells assessed as reduction in cell viability measured for 72 hrs by MTT assay; settings: MCF7, 72 h
SK-MEL-5 = assay: cells; settings: Homo sapiens, SK-MEL-5, 48 h
Description: Growth inhibition of human SK-MEL-5 cells after 48 hrs by sulforhodamine B assay

Xaa-Pro dipeptidase [2] = molecular target: T1, Xaa-Pro dipeptidase; assay: Inhibition of prolidase (unknown origin)

Ki (Xaa-Pro dipeptidase [1]): 9.73 µM
Compound: NC(=O)Nc1ccc(O)cc1

Compound: O=NN(CCCl)C(=O)N1CCC[C@H]1C(=O)O
IC50 (MDA-MB-231): 88 µM | IC50 (MCF7): 102 µM

Compound: N[C@@H](Cc1ccc(N(CCCl)CCCl)cc1)C(=O)O
GI50 (SK-MEL-5): 74.8 µM

IC50 (Xaa-Pro dipeptidase [2]): 0.3 µM
Compound: COc1cccc2c1C(=O)c1c(O)c3c(c(O)c1C2=O)C[C@@](O)(C(C)=O)C[C@@H]3O[C@H]1C[C@H](N)[C@H](O)[C@H](C)O1 [DAUNORUBICIN]

IC50 (Xaa-Pro dipeptidase [2]): 10 µM
Compound: COc1cccc2c1C(=O)c1c(O)c3c(c(O)c1C2=O)C[C@@](O)(C(=O)CO)C[C@@H]3O[C@H]1C[C@H](N)[C@H](O)[C@H](C)O1 [DOXORUBICIN]
